Source: patent US7037656B2, “Methods and compositions for identifying ligands for nuclear receptors” (priority 2000, dated 2006)

Columns and labels:
Assay in all cases: Yeast 6x EcRE-lacZ β-galactosidase transactivation assay
Aa EcR = molecular target: T1, Aa EcR (Aedes aegypti, UniProt P49880, DEL155-194); type: cell-based; settings: RH 5992 10 μM, 4 hours, DMSO control 2.500
T1 construct: ubiquitin (human, 76 aa) (N, cleaved yes); expressed in transfected cells
Protocol: (§1) Briefly, yeast cells are cultured in 5 mL of YPD liquid medium overnight at 30° C. The cell culture was diluted 1:20 in YPD media and further grown until cell density reached an O.D of 0.6. at OD600. The cells were pelleted by centrifugation and washed with 10 mL of TE+0.1M lithium acetate. Cells are then resuspended in 10 mL TE+0.1M lithium acetate and incubated at 30° C. for 1 hour. Cells are collected and resuspended in 0.5 mL of TE+ 0.1M lithium acetate. Aliquots of cells (50 μL), were incubated for 15 minutes at 30° C. with 1–2 μg plasmid DNA in the presence of 5 μg of denatured salmon sperm DNA as DNA carrier. In the case of co-transformation, the indicated plasmids were added simultaneously. 50% polyethyleneglycol of molecular weight 4000, diluted in TE, was added to a final concentration of 35%. DMSO was added to the transformation solution simultaneously to a final concentration 3%. The samples were mixed well by vortexing and incubated for an additional 30 minutes at 30° C. The cell mixture is then heated for 15 minutes at 42° C. Cells were then collected and plated onto appropriate yeast selective media. Transformants of 4 plasmids are selected on the complete media without tryptophan, uracil, leucine and histidine.
(§2) The yeast cells grown overnight in selective liquid media at 30° C. were diluted in prewarmed liquid selective media to 0.1 at OD600 (ODculture). 100 μl of the cell culture was spiked to each well of a.96-well microtiter plate. […] After 4 hours of incubation, 100 μl of 2× “Z” Sarcosine-ONPG buffer (120 mM Na2HPO4, 80 mM NaH2PO4, 20 mM KCl, 2 mM MgSO4, 100 mM beta-mercaptoethanol (Sigma), pH 7.0, 0.4% lauroyl sarcosine (Sigma), 4 mg/mL ONPG (Diagnostic Chemicals limited) was added to each well and the plate was further incubated at 37° C. The 2× “Z” Sarcosine-ONPG buffer is freshly prepared or stored at −20° C. prior to use. After incubation at 37° C. for 1 hour. The reaction was stopped by adding 100 μL of quenching solution 0.5 M Na2CO3 and OD405 (ODreaction) and beta-galactosidase activity was measured in a micro plate reader (Biotek) at a wave length of 405–450 nanometers. […]
(§3) Using the transformation method described above, yeast were co-transformed with a reporter gene as shown in FIG. 2 and the expression vector encoding the full-length Aedes aegypti ecdysone receptor, Aa EcR (FIG. 7A) in the presence or absence of the Aa EcR heterodimer partner, Aa USP (a or b form, FIGS. 8A and 8B respectively). […] As the N-terminal portion of the AaEcR receptor is reported to play a role in ligand independent transactivation, an expression vector containing an N-terminal deletion in the Aa EcR was constructed (see FIG. 7B) and assessed in the β-galactosidase assays described above. […]

[1] = molecular target: T2, Aa ΔA/B EcR + Aa USPa + GRIP1 (Aedes aegypti, UniProt P49880); type: cell-based; settings: RH 5992 10 μM, 4 hours, DMSO control 0.272
T2 construct: ubiquitin (human, 76 aa) (N, cleaved yes); expressed in transfected cells
T2 sequence (P49880 with tags, fused parts or gaps): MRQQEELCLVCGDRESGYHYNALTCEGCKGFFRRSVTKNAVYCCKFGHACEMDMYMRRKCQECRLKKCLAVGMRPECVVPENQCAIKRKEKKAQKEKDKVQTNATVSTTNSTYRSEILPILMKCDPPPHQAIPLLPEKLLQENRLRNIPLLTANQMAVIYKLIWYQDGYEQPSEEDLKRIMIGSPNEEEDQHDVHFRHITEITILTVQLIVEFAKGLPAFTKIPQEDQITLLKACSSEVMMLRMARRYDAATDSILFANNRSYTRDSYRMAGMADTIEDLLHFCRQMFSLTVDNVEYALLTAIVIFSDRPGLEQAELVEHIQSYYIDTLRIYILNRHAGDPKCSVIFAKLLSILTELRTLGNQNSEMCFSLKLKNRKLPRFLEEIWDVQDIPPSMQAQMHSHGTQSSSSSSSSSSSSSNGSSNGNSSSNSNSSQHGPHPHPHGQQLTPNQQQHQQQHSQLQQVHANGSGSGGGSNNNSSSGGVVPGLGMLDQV
Protocol: as §1, §2, §3

[2] = molecular target: T3, Aa ΔA/B EcR + AaUSPb + GRIP1 (Aedes aegypti, UniProt P49880); type: cell-based; settings: RH 5992 10 μM, 4 hours, DMSO control 0.240
T3 construct: ubiquitin (human, 76 aa) (N, cleaved yes); expressed in transfected cells
T3 sequence (P49880 with tags, fused parts or gaps): as above
Protocol: as §1, §2, §3

Aa ΔA/B EcR + Aa USPb = molecular target: T4, Aa ΔA/B EcR + Aa USPb (Aedes aegypti, UniProt P49880); type: cell-based; settings: RH 5992 10 μM, 4 hours, DMSO control 0.177
T4 construct: ubiquitin (human, 76 aa) (N, cleaved yes); expressed in transfected cells
T4 sequence (P49880 with tags, fused parts or gaps): as above
Protocol: as §1, §2, §3

[3] = molecular target: T5, Dm ΔN EcR +Aa USPb-form + GRIP1 (Drosophila melanogaster, UniProt P34021); type: cell-based, Drosophila melanogaster; Aedes aegypti; settings: RH 5992 10 μM, 4 hours, DMSO control 0.251
T5 construct: ubiquitin (human, 76 aa) (N, cleaved yes); expressed in transfected cells
T5 sequence (P34021 221-878, stated change not applied): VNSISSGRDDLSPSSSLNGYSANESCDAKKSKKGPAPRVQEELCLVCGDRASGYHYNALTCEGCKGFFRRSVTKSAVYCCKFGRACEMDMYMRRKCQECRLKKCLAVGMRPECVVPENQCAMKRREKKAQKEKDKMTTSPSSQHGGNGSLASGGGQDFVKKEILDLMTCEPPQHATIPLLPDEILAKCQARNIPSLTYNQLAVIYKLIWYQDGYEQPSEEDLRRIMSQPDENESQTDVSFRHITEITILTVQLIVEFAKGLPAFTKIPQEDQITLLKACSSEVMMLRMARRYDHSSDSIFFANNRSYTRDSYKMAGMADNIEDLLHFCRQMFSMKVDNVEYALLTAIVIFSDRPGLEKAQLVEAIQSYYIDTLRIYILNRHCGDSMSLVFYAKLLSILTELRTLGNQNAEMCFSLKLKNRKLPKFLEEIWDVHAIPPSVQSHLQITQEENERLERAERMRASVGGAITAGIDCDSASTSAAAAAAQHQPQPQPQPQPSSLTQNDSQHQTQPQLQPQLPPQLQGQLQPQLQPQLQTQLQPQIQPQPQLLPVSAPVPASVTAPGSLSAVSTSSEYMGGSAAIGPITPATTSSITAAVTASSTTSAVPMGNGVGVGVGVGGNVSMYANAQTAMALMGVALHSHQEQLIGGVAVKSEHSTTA
Protocol: as §1, with “DMSO was added to the transformation solution simultaneously to a final concentration 3%. The samples were mixed well by vortexing and incubated for an additional 30 minutes at 30° C. The cell mixture is then heated for 15 minutes at 42° C. Cells were then collected and plated onto appropriate yeast selective media. Transformants of 4 plasmids are selected on the complete media without tryptophan, uracil, leucine and histidine.” left out
Using the transformation method set forth above, yeast were co-transformed with a reporter gene as shown in FIG. 2 and the expression vector encoding the full-length D. melanogaster ecdysone receptor, DmEcR (FIG. 3A) in the presence or absence of the Dm EcR heterodimer partner, DmUSP (FIG. 4A). […] As the N-terminal portion of the Dm EcR receptor is reported to play a role in ligand independent transactivation, an expression vector containing an N-terminal deletion in the EcR was constructed (see FIG. 3B) and assessed in the β-galactosidase assays described above. […]

T1 sequence (P49880 other isoform, or with tags, fused parts or gaps DEL155-194): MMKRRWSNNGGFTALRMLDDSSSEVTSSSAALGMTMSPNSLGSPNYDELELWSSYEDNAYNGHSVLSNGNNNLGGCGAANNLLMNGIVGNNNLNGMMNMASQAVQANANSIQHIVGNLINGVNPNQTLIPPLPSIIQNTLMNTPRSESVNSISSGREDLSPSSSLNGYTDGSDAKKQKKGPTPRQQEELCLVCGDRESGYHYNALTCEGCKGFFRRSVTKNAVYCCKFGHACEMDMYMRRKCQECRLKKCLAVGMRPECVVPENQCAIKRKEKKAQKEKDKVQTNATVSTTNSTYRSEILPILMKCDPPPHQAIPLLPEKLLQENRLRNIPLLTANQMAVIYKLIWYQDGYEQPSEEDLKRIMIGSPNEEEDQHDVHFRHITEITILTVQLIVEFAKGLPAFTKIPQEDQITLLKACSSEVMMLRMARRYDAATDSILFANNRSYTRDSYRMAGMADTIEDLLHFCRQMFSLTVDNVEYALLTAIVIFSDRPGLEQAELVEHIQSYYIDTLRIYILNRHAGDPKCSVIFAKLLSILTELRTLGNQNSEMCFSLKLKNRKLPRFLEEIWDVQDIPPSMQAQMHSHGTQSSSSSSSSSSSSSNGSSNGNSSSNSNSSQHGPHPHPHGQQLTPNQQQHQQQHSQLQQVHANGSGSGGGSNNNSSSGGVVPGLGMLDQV

Compound: CCc1ccc(C(=O)NN(C(=O)c2cc(C)cc(C)c2)C(C)(C)C)cc1 [RH 5992, tebufenozide]
- β-galactosidase activity (Aa EcR): 2.750
- β-galactosidase activity [1]: 2.026
- β-galactosidase activity [2]: 2.074
- β-galactosidase activity (Aa ΔA/B EcR + Aa USPb): 0.184
- β-galactosidase activity [3]: 2.068
